A short description of data set [1]: P26 in aqueous solution, without enzymes. The settings on record: 37 °C, up to 7 days.
The subject of the next data set is α-amylase. Description: Peptide stability in artificial saliva with α-amylase (HPLC). Format: in vitro ADME. The note with it: 37 °C. The method, then: (§1) Solutions of MMP8, MMP1 (R&D systems, Minneapolis, MN, USA), α-amylase, and lysozyme (Sigma, Burlington, MA, USA) were prepared following the manufacturer’s instructions. Prior to each use, pro-MMP1 and pro-MMP8 were activated with 10 mM APMA according to the manufacturer’s protocol (R&D Systems). Successful cleavage of both enzymes into their active form was confirmed using SDS-PAGE gel electrophoresis. To better mimic in vivo oral conditions, all enzymes were used at concentrations found in healthy individuals, as reported in the literature: MMP8 (final 0.286 μg/mL; [30], MMP1 (final 20 pg/mL [31], α-amylase (final 119 U/mL; [32], and lysozyme (final 0.4 μg/mL [30]. A total of 125 μL of aqueous P26 or P26-CS solutions (0.2 mg/mL final) was added to an equal volume of artificial saliva (AS; 1.2 mM CaCl2·2H2O, 50 mM HEPES buffer, 0.72 mM KH2PO4, 16 mM KCl, 4.5 mM NH4Cl, 0.2 mM MgCl2·6H20, and 1 ppm NaF). Then, the enzymes were mixed in and immediately placed in a water bath at 37 °C. An initial collection was (t = 0) carried out and analyzed by Reverse-phase High-Performance Liquid Chromatography (HPLC), as described below. Incubations for each sample were performed in triplicate. To quantify the effect of each enzyme, individual enzymes were incubated with 125 μL of P26-CS and 125 μL of AS. […]

The subject of data set [2] is MMP1, MMP8, α-amylase, and lysozyme. Description: Peptide stability in artificial saliva with all salivary enzymes simultaneously (HPLC). It counts as in vitro ADME. The note with it: all enzymes at native concentrations, 30 min, 37 °C, n = 3. The method, then:
as §1

Data set [3] deals with MMP8, MMP1, α-amylase, and lysozyme. Description: Peptide stability in artificial saliva with individual salivary enzymes (HPLC peak area). It counts as in vitro ADME. The settings on record: individual enzymes at native concentrations, peptide 0.2 mg/mL, 30 min, 37 °C, RP-HPLC C18 peak area, triplicate. The method, then:
as §1

Data set [4] can be described thus: Self-degradation of P26 without enzymes (LC/MS). The note with it: P26 solution 0.2 mg/mL, 37 °C, 7 days. Format: physicochemical. The method, then:
P26 amelogenin peptide was synthetized by Biomer Technology (San Francisco, CA, USA). P26 solutions (0.2 mg/mL) were prepared as previously described and incubated at 37 °C for 7 days and subsequently analyzed by liquid chromatography/mass spectrometry (LC/MS; Scripps Research Institute, San Diego, CA, USA). Significant peaks in the MS spectra were matched to degradation products of P26 based on their m/z.

Where a SMILES comes first, the peptide text is derived from it. [ ]: non-standard residue; d: D form. pS = N[C@@H](COP(=O)(O)O)C(=O)O

As for MPLPS(PHOS)YEVLTPLKWPSTDKTKREEVD, in data set [1], the cleaved bond result is “M-P and V-D and E-E and L-P and P-S(PHOS)”.

Take `CSCC[C@H](N)C(=O)N1CCC[C@H]1C(=O)N[C@@H](CC(C)C)C(=O)N1CCC[C@H]1C(=O)N[C@@H](COP(=O)(O)O)C(=O)N[C@@H](Cc1ccc(O)cc1)C(=O)N[C@@H](CCC(=O)O)C(=O)N[C@H](C(=O)N[C@@H](CC(C)C)C(=O)N[C@H](C(=O)N1CCC[C@H]1C(=O)N[C@@H](CC(C)C)C(=O)N[C@@H](CCCCN)C(=O)N[C@@H](Cc1c[nH]c2ccccc12)C(=O)N1CCC[C@H]1C(=O)N[C@@H](CO)C(=O)N[C@H](C(=O)N[C@@H](CC(=O)O)C(=O)N[C@@H](CCCCN)C(=O)N[C@H](C(=O)N[C@@H](CCCCN)C(=O)N[C@@H](CCCNC(=N)N)C(=O)N[C@@H](CCC(=O)O)C(=O)N[C@@H](CCC(=O)O)C(=O)N[C@H](C(=O)N[C@@H](CC(=O)O)C(=O)O)C(C)C)[C@@H](C)O)[C@@H](C)O)[C@@H](C)O)C(C)C` [P26] (H-MPLP[pS]YEVLTPLKWPSTDKTKREEVD-OH): in the data set on α-amylase (α-amylase 23.87 U/mL (5× dilution, enzyme to substrate 1:10) compared with 1:2, artificial saliva, HPLC spectra), the “degradation products at diluted amylase versus native ratio” value is recorded as “lesser degradation products”. Besides, in the data set with α-amylase (α-amylase 119 U/mL (enzyme to substrate 1:2), artificial saliva, 5 h, HPLC), the “degradation by amylase relative to other enzymes” value is reported as “highest levels of degradation amongst all the enzymes used”. Moreover, in data set [2], the “peptide stability, P26 versus P26 with CS” value was “comparably stable”. In addition, the “peptide substrate remaining (% area of initial HPLC peak at t = 0)” value in data set [3] is 90–100%. The “self-degradation of the peptide without enzymes” value in data set [4] is reported as “substantially resistant to self-degradation”.

The values are drawn from PMC11853660 (Biomimetics, 2025).
